Laboratory results: BindingDB's records for patent US20250223301 (Inventisbio Co., 2025)

How the values were obtained:
[1] = biological target: Diacylglycerol kinase alpha (Homo sapiens, UniProt P23743); test: DGK ADP-Glo Kinase Assay
Protocol: (§1) Luminescence was recorded using an Tecan SPARK microplate reader.

[2] = biological target: Diacylglycerol kinase zeta (Homo sapiens, UniProt Q13574); test: DGK ADP-Glo Kinase Assay
Protocol: as §1

Diacylglycerol kinase zeta, sequence (Q13574 as listed by the source): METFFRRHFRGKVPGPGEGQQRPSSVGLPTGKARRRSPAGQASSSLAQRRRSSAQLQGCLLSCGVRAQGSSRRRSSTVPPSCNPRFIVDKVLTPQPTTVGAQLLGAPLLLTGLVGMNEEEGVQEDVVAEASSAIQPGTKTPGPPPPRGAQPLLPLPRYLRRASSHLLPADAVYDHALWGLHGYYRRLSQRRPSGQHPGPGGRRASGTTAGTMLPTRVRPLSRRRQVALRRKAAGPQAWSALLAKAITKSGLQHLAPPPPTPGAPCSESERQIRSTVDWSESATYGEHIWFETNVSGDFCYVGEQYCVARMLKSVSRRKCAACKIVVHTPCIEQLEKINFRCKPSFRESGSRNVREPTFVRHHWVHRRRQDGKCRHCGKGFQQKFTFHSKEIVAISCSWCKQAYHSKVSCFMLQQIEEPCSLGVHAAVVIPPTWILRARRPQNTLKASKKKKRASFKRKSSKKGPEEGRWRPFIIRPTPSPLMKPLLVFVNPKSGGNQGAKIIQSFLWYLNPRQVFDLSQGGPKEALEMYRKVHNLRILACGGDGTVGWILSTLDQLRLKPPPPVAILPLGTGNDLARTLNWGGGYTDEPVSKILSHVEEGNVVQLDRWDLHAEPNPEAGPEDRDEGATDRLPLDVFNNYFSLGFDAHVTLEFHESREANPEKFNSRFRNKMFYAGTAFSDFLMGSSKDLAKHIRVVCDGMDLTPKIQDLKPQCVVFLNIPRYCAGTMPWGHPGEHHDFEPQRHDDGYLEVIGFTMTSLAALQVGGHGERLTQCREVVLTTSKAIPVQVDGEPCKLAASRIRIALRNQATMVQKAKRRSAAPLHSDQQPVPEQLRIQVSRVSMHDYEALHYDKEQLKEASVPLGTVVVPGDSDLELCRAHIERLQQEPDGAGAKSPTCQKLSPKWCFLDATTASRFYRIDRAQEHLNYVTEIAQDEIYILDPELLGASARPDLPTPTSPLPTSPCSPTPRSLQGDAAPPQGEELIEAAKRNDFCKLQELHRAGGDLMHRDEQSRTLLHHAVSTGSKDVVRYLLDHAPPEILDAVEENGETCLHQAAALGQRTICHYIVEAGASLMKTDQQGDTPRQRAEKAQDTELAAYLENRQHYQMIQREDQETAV
Diacylglycerol kinase alpha, sequence (P23743 whole entry): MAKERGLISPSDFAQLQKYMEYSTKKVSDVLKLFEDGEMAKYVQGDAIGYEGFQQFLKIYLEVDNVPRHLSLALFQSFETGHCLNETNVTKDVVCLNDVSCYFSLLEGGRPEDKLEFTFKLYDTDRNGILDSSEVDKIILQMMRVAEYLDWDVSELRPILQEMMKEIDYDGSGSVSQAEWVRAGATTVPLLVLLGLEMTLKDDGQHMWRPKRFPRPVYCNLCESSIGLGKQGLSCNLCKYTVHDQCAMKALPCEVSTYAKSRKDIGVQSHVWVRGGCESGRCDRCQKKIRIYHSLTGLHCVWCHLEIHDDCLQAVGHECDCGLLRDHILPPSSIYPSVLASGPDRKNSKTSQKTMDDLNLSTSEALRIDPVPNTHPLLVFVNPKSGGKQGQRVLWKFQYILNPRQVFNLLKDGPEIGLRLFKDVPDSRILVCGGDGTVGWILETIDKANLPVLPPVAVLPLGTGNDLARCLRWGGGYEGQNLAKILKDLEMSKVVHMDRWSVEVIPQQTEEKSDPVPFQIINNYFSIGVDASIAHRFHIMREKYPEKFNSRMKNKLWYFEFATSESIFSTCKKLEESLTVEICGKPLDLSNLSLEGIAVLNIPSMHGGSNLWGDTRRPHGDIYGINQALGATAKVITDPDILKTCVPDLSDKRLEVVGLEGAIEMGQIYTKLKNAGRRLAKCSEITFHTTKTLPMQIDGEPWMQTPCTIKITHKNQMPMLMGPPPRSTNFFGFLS

IC50 [1]: 76 nM | IC50 [2]: 12 nM
SMILES: CCC(c1cccc(S(F)(F)(F)(F)F)c1)N1C[C@H](CC)N(c2nc(=O)n(C)c3ccc(C#N)nc23)C[C@H]1CC (single isomer, unassigned) [US20250223301, Compound 55]
